“Also recorded” adds a separate entry of the source. Where two headings read alike, the source gives them in different places. Marks after values point to notes of the source that are not given here.
How the values were obtained:
[1] = Pharmacokinetics, repeat oral dose study; type: in vivo; conditions: mice; for V / k / half-life at 30 days: oral 100 mg/kg body wt./day; for half-life at 30 days: mouse, whole blood, po, 100 mg/kg, read-out: t½ (converted)
[2] = Long-term (chronic) toxicity study, mice; conditions: multiple dose, observed up to 90 days after treatment
Description: (§1) Long-term (chronic) toxicity study: Mode of treatment and dilution by either water or normal saline were identical to acute toxicity study. Chronic toxicity study was made with four species of animals: mice, rat, rabbit and dog.
Mice. For experiment with these animals, 4 batches of mice were used per mode of treatment. Each batch contained 6 animals either male or female weighing 18-25 g. […] In all the cases, control group received water or normal saline in respective manner.
(§2) Total number of animals in each group including control and different modes of treatment: 6 (mice), 5 (rats) and 4 (rabbits). Each set of experiment was repeated 4 times for mice and rats and for rabbits 2 times respectively. […] In Table 3, αWeight of animals for mice and rats in gm and for rabbit in Kg.

[3] = for Blood cells, remarks: dog and bitch
Description: Hemoglobin was estimated by reacting the blood sample with Drabkin's reagent to convert it to cyanmethemoglobin and measuring the absorbance at 540 nm. Urea was estimated by reacting it with hot acidic diacetylmonoxime in the presence of semicarbarzide and measuring the rose-purple color at 525 nm. Glucose was estimated by glucose oxidase method in the presence of peroxidase and measuring the absorbance of the colored complex of hydroxybenzoate and 4-aminophenazone at 510 nm. Creatinine was measured by reacting it with alkaline picrate and measuring the absorbance of the red-colored complex at 520 nm. Alkaline phosphatase was assayed by its ability to convert phenyl phosphate to inorganic phosphate and phenol. The later reacts with 4-aminoantipyrine to form an orange-red-colored complex, which was measured at 510 nm. Aspartate transaminase was measured by reacting the reaction product oxaloacetate (from the substrate 1-aspartic acid) with 2,4-dinitrophenyl hydrazine. The hydrazone thus formed gives a characteristic brown color when placed in an alkaline medium and was measured at 505 nm. Alanine transaminase was assayed similarly by 2,4-dinitrophenylhydrazine-alkali color reaction; the substrate and products are 1-alanine and pyruvate respectively.
Long-term toxicity test with non-rodents (dog and bitch). Total of 6 animals (4 dogs and 2 bitches) were used for this experiment. The animals were 3-4 months old. Three different modes of treatment were used; two animals received the formulation orally, the other two by intravenous injection and the other two by subcutaneous injection. The total period of treatment was for 4 weeks (5 days per week).
Dogs. For biochemical analysis, blood samples from each individual animal were collected and processed similarly to that of rats. The samples were collected just before the treatment commenced, in mid-phase of the treatment and 7 days after completion of the treatment. The samples were analyzed for the activities of several enzymes and metabolite contents as per the methods described in the respective assay kit and are briefly mentioned before. Hemoglobin estimation and cell count were done with an uncoagulated sample.
However, subcutaneous injections appeared to be painful. The biochemical tests and some hematological studies were performed with blood of the animals, the results of which are presented in the Tables.

[4] = both, rat, in vivo, 6 weeks
[5] = tested on: ascites sarcoma 180 cells; conditions: Együd and Szent-Györgyi, 1968; cited from earlier work
[6] = rats
Protocol: as §1
Rats. For experiment with these animals, 4 batches of rats were used per mode of treatment. Each batch contained 5 rats either male or female weighing 75-80 g per animal. […] Then, the rats were injected for 3 cycles; one cycle consisted of injections for two consecutive days followed by a rest of 1 day.
as §2
Details are described in the Tables.

EAC cells = assay: Increase in body weight of EAC cell-inoculated mice; type: in vivo; conditions: Table 10
Protocol: Increase in body weight: For this experiment, mice were weighed periodically during and after the therapy. The results are expressed as percentage increase in the body weight using the following relationship: percent increase equals
Ehrlich ascites carcinoma bearing mice were treated intraperitonially with different drug combinations in normal saline to observe their effect on body weight (table 10) and life span (table 11). Mice in the control group were similarly treated intraperitonially only with normal saline.
The day on which 10^5 EAC cells were inoculated into each mouse was considered as day 0. The treatment started from day 3. […] 6 animals received a particular mode of treatment. Control group received only normal saline. […] Each set of experiment was repeated 4 times.

[7] = Histological studies with mice; type: in vivo; conditions: oral 0.5 gm/kg once a day for 10 weeks
Description: After end of the treatment, the mice were killed, and several organs were excised and processed for histological studies. Bone marrow cells were taken from the marrow cavity of the femur bone.
Histological studies with mice: Histological studies were done with several organs of mice, and the results are presented in FIG. 1.

[8] = time after last dose Up to 48 h
[9] = oral 100 mg/kg/day, last dose day 30

CC(=O)C=O [methylglyoxal]
V ([1]; time after last dose 48-120 h): 50.89 L/kg | k ([1]; time after last dose 48-120 h): 0.0231 h − 1 | V [1, 8]: 73.90 L/kg | k [1, 8]: 0.0017 h − 1 | day from which peak concentration was achieved [1, 9]: three | day on which the basal level was reached [1, 9]: ~35 days | half-life at 30 days ([1]; time after last dose 48-120 h): 30 h | half-life at 30 days [1, 8]: 408 h | death and toxic effect (physical and behavioral) [2]: No death and toxic effect | Blood cells, remarks ([3]; After treatment): Mild hypochromia; also recorded: No abnormal cells | Blood cells, remarks ([3]; Mid-phase treatment): Mild hypochromia; also recorded: No abnormal cells | Basophils ([3]; dog, in vivo): 0% | general physical conditions and behavioral pattern vs control ([3]; dog, long-term treatment): no abnormalities | death ([3]; dogs, during and after the treatment (90 days)): no death occurred | healthy litters per female, on an average [4]: 5 | tumor development [5]: no tumor developed | local reaction to intravenous injections ([6]; intravenous, from 3rd week of the treatment): swelling appeared in the tail and adjoining regions | toxic effect on physical condition and behavioral pattern, death ([6]; multiple dose, observed up to 90 days after treatment): No toxic effect | Percent increase in body weight (EAC cells; MG 30 mg/kg/day ip, Day 15): 15.8 ± 1.3% | Percent increase in body weight (EAC cells; MG 30 mg/kg/day ip, Day 25): 30.0 ± 2.9% | Percent increase in body weight (EAC cells; MG 30 mg/kg/day ip, Day 35, 2 animals survived out of 6): 38.8 ± 3.0^b % | Percent increase in body weight (EAC cells; MG 100 mg/kg body weight/day ip, Day 15): 8.0 ± 0.7% | Percent increase in body weight (EAC cells; MG 100 mg/kg body weight/day ip, Day 20): 10.0 ± 1.2% | Percent increase in body weight (EAC cells; MG 100 mg/kg body weight/day ip, Day 25): 11.0 ± 1.0% | histological examination of organs (liver, kidney, spleen, duodenum, bone marrow) [7]: none of the organs tested by histological examination had any adverse effect

— patent US9198896B2 (priority 2006, dated 2015)
